Results on 18 compounds are retold here after PubChem BioAssay AID328 (DTP/NCI, 2004).

Molecules are shown by their SMILES. “And” between values parts separate entries of the source, which are not always exact repeats. Identical values can stand only once. Inconclusive results and toxic doses are left out.

The assay has as its system BDF1 mice, P388 leukemia ip, median survival T/C. Put plainly: NCI In Vivo Anticancer Drug Screen. Data for tumor model P388 Leukemia (intraperitoneal) in B6D2F1 (BDF1) mice. As to conditions: endpoint: median survival time, higher = longer survival. Summed up:
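Transplantable tumour in mice; compound vs vehicle dosing; survival scored; ratio of treated to control reported.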

Where [1] appears, read: dose: 0.78 mg/kg/injection, schedule: Q01DX009 (ip), vehicle: saline.
Setting [2] is: dose: 1.56 mg/kg/injection, schedule: Q01DX009 (ip), vehicle: saline.
Setting [3] is: dose: 12.5 mg/kg/injection, schedule: Q01DX009 (ip), vehicle: saline.
Where [4] appears, read: dose: 100.0 mg/kg/injection, schedule: Q01DX009 (ip), vehicle: Klucel (hydroxypropylcellulose) (HPC).
Setting [5] is: dose: 200.0 mg/kg/injection, schedule: Q01DX009 (ip), vehicle: Klucel (hydroxypropylcellulose) (HPC).
Where [6] appears, read: dose: 400.0 mg/kg/injection, schedule: Q01DX009 (ip), vehicle: Klucel (hydroxypropylcellulose) (HPC).
The mark [7] stands for this setting: dose: 50.0 mg/kg/injection, schedule: Q01DX009 (ip), vehicle: saline with Tween-80.
The mark [8] stands for this setting: dose: 100.0 mg/kg/injection, schedule: Q01DX009 (ip), vehicle: saline with Tween-80.
Setting [9] is: dose: 200.0 mg/kg/injection, schedule: Q01DX009 (ip), vehicle: saline with Tween-80.
Where [10] appears, read: dose: 400.0 mg/kg/injection, schedule: Q01DX009 (ip), vehicle: saline with Tween-80.
The mark [11] stands for this setting: dose: 100.0 mg/kg/injection, schedule: Q04DX003 (ip), vehicle: saline.
The mark [12] stands for this setting: dose: 100.0 mg/kg/injection, schedule: Q04DX003 (ip), vehicle: saline with Tween-80.
[13] abbreviates: dose: 200.0 mg/kg/injection, schedule: Q04DX003 (ip), vehicle: saline with Tween-80.
[14] abbreviates: dose: 400.0 mg/kg/injection, schedule: Q04DX003 (ip), vehicle: saline with Tween-80.
The mark [15] stands for this setting: dose: 6.25 mg/kg/injection, schedule: Q01DX009 (ip), vehicle: Klucel (hydroxypropylcellulose) (HPC).
Setting [16] is: dose: 12.5 mg/kg/injection, schedule: Q01DX009 (ip), vehicle: Klucel (hydroxypropylcellulose) (HPC).
The mark [17] stands for this setting: dose: 25.0 mg/kg/injection, schedule: Q01DX009 (ip), vehicle: Klucel (hydroxypropylcellulose) (HPC).
Where [18] appears, read: dose: 50.0 mg/kg/injection, schedule: Q01DX009 (ip), vehicle: Klucel (hydroxypropylcellulose) (HPC).
Where [19] appears, read: dose: 25.0 mg/kg/injection, schedule: Q01DX009 (ip), vehicle: saline.
Where [20] appears, read: dose: 50.0 mg/kg/injection, schedule: Q01DX009 (ip), vehicle: saline.

For `CC(=O)[O][Hg][c]1c(N)c(C)cc(C)c1F`, the T/C is 93 % of control under setting [1]; 95 % of control under setting [2]; 93 % of control (dose: 3.12 mg/kg/injection, schedule: Q01DX009 (ip), vehicle: saline); 95 % of control (dose: 6.25 mg/kg/injection, schedule: Q01DX009 (ip), vehicle: saline); 95 % of control under setting [3].

As to `O=C(N/N=C/C=C/c1ccccc1)[C@H](O)[C@@H](O)C(=O)N/N=C/C=C/c1ccccc1`, the T/C reads like this: under setting [4], 88 % of control; under setting [5], 96 % of control; under setting [6], 92 % of control.

Consider `COC(=O)/C(=C/c1ccccc1)c1ccccc1`, for which the T/C was 101 % of control under setting [7], 99 % of control under setting [8] and 96 % of control under setting [9].

Turning to `CCOC(=O)C(CNc1ccccc1)C(=O)OCC`, the T/C (dose: 25.0 mg/kg/injection, schedule: Q01DX009 (ip), vehicle: saline with Tween-80) is 95 % of control; the T/C under setting [7] is 95 % of control; the T/C under setting [8] was 95 % of control and 100 % of control; the T/C under setting [9] was 100 % of control; the T/C under setting [10] was 108 % of control and 109 % of control.

For the compound `CC1(C)OCC(=NNC(N)=O)CO1`, under setting [11], the T/C is 98 % of control.

For the compound `CCC1(O)CC2CN(CCc3c([nH]c4ccccc34)C(C(=O)OC)(c3cc4c(cc3OC)N(C)C3C(O)(C(=O)NCCO)C(O)C5(CC)C=CCN6CCC43C65)C2)C1` (stereo not given), the T/C reads like this: (dose: 500.0 micrograms/kg/injection, schedule: Q04DX003 (ip), vehicle: saline) 173 % of control; (dose: 1000.0 micrograms/kg/injection, schedule: Q04DX003 (ip), vehicle: saline) 182 % of control; (dose: 2000.0 micrograms/kg/injection, schedule: Q04DX003 (ip), vehicle: saline) 219 % of control; (dose: 4000.0 micrograms/kg/injection, schedule: Q04DX003 (ip), vehicle: saline) 286 % of control.

`CCSC1(SCC)C(=O)OC2=C(CCCCC2)C1N(C)c1ccccc1` (stereo not given): the T/C was 87 % of control under setting [7] and 96 % of control under setting [9].

For `COc1cc2c(c(OC)c1OC)-c1cc3c(cc1[C@@H](O)[C@@H]1COC(=O)[C@@H]21)OCO3`, the T/C (dose: 6.2 mg/kg/injection, schedule: Q01DX009 (ip), vehicle: saline) was 90 % of control; the T/C (dose: 9.3 mg/kg/injection, schedule: Q01DX009 (ip), vehicle: saline) was 86 % of control; the T/C (dose: 14.0 mg/kg/injection, schedule: Q01DX009 (ip), vehicle: saline) was 109 % of control; the T/C (dose: 21.0 mg/kg/injection, schedule: Q01DX009 (ip), vehicle: saline) was 100 % of control.

With `ClC(Cl)(Cl)C(N1CCN(c2ccccc2)CC1)N1CCN(c2ccccc2)CC1`, the T/C is 104 % of control under setting [7], 100 % of control under setting [8] and 95 % of control under setting [9].

With `COc1cc2c(cc1OC)C1CCN3C(=O)CCC3N1CC2` (stereo not given), the T/C by setting is: under setting [12], 88 % of control; under setting [9], 92 % of control; under setting [13], 92 % of control; under setting [10], 104 % of control; under setting [14], 96 % of control.

Turning to `NC(N)=N/N=C/c1ccc(Cl)c(Cl)c1`, the T/C was 102 % of control under setting [15], 100 % of control under setting [16], 94 % of control under setting [17] and 100 % of control under setting [18].

Take `CCCCCCCCCCCC[N+](C)(C)Cc1ccccc1`: the T/C reads like this: (dose: 0.43 mg/kg/injection, schedule: Q04DX003 (ip), vehicle: saline) 90 % of control; under setting [1], 109 % of control; (dose: 0.87 mg/kg/injection, schedule: Q04DX003 (ip), vehicle: saline) 100 % of control; under setting [2], 109 % of control; (dose: 1.75 mg/kg/injection, schedule: Q04DX003 (ip), vehicle: saline) 100 % of control; (dose: 2.05 mg/kg/injection, schedule: Q01DX009 (ip), vehicle: saline) 161 % of control. Besides, the T/C (dose: 3.5 mg/kg/injection, schedule: Q04DX003 (ip), vehicle: saline) is 109 % of control.

With `O=C(O)c1c(-c2ccccc2)[nH]c2cc(Cl)ccc2c1=O`, the T/C reads like this: under setting [15], 95 % of control; under setting [16], 90 % of control and 109 % of control; under setting [17], 100 % of control; under setting [18], 95 % of control; under setting [7], 114 % of control; (dose: 50.0 mg/kg/injection, schedule: Q04DX003 (ip), vehicle: saline with Tween-80) 122 % of control. The T/C by setting is: (dose: 90.0 mg/kg/injection, schedule: Q04DX003 (ip), vehicle: saline with Tween-80) 109 % of control; under setting [8], 118 % of control; under setting [12], 113 % of control; (dose: 133.0 mg/kg/injection, schedule: Q04DX003 (ip), vehicle: saline with Tween-80) 112 % of control and 113 % of control; under setting [9], 100 % of control; under setting [13], 108 % of control and 109 % of control. In addition, the T/C (dose: 300.0 mg/kg/injection, schedule: Q04DX003 (ip), vehicle: saline with Tween-80) was 104 % of control.

For the compound `CSc1sc2ccccc2[n+]1C`, the T/C was 100 % of control and 104 % of control under setting [19]; 90 % of control and 120 % of control under setting [20]; 86 % of control and 119 % of control (dose: 100.0 mg/kg/injection, schedule: Q01DX009 (ip), vehicle: saline).

For the compound `O=C(O)c1ccc(NS(=O)(=O)Cc2ccccc2)cc1`, the T/C is 123 % of control under setting [4], 123 % of control under setting [5] and 123 % of control under setting [6].

In the case of `CN1CCCN(C)CC1`, the T/C reads like this: (dose: 75.0 mg/kg/injection, schedule: Q01DX009 (ip), vehicle: saline with Tween-80) 103 % of control; under setting [12], 100 % of control; (dose: 150.0 mg/kg/injection, schedule: Q01DX009 (ip), vehicle: saline with Tween-80) 119 % of control; under setting [13], 95 % of control; (dose: 300.0 mg/kg/injection, schedule: Q01DX009 (ip), vehicle: saline with Tween-80) 107 % of control; under setting [14], 112 % of control.

With `CSc1ncc2n1C=CN(C(=O)c1ccc([N+](=O)[O-])cc1)C2O` (stereo not given), the T/C under setting [3] was 99 % of control; the T/C under setting [19] was 87 % of control; the T/C (dose: 25.0 mg/kg/injection, schedule: Q04DX003 (ip), vehicle: saline) was 107 % of control; the T/C under setting [20] was 92 % of control; the T/C (dose: 50.0 mg/kg/injection, schedule: Q04DX003 (ip), vehicle: saline) was 94 % of control; the T/C under setting [11] is 93 % of control. Further, the T/C (dose: 200.0 mg/kg/injection, schedule: Q04DX003 (ip), vehicle: saline) is 90 % of control.

As for `NNC(=S)N/N=C/c1ccc([N+](=O)[O-])s1`, the T/C runs as follows: under setting [4], 110 % of control; under setting [5], 112 % of control.
